Several values for one entry are separate records, joined by “and”; a condition that tells them apart may be missing. Identical values can stand only once.

Experiment [1] deals with serum ACTH and cortisol levels. The experiment is described as follows: Serum ACTH and cortisol levels and ACTH:cortisol ratio in Cushing's syndrome patients administered mifepristone. It counts as in vivo, human.
The subject of experiment [2] is serum ACTH and cortisol levels. The experiment is described as follows: Serum ACTH and cortisol levels and ACTH:cortisol ratio in Cushing's syndrome patients administered relacorilant. It counts as in vivo, human. To be noted: for change in ACTH:cortisol ratio following treatment: relacorilant 100-400 mg/day, six weeks. The procedure:
Cushing's syndrome (CS) patients were examined and serum levels of ACTH and cortisol were measured in blood samples obtained from the patients. The serum ACTH and cortisol levels determined prior to administration of glucocorticoid receptor antagonist (GRA) therapy were used to calculate baseline ACTH:cortisol ratios (basal ACTH:cortisol ratios). […] The patients then received oral glucocorticoid receptor antagonist (GRA) therapy (either mifepristone or relacorilant, typically daily) for at least six weeks. The serum ACTH and cortisol levels determined after these six weeks of GRA therapy were used to calculate after-GRA ACTH:cortisol ratios. Three patients were treated with relacorilant (100 milligrams (mg) per day, titrated up to 400 mg per day, as tolerated; see Table 1). […] The results of these clinical measurements in Cushing's syndrome patients administered relacorilant (100 milligrams (mg) per day, titrated up to 400 mg per day, as tolerated) are presented in the Table 1: […]

In the case of `CC#C[C@]1(O)CC[C@H]2[C@@H]3CCC4=CC(=O)CCC4=C3[C@@H](c3ccc(N(C)C)cc3)C[C@@]21C` [mifepristone, 11β-(4-dimethylaminophenyl)-17β-hydroxy-17α-(1-propynyl)-estra-4,9-dien-3-one], in experiment [1] (individual patients with confirmed pituitary CS (ACTH dependent), serum, prior to mifepristone), the “Basal ACTH” value was 16 pg/mL and 21 pg/mL and 20 pg/mL and 7 pg/mL and 15 pg/mL and 8 pg/mL. For the same compound, the “Day 14 Serum Cortisol” value in experiment [1] (individual patients with confirmed pituitary CS, day 14 of oral mifepristone 300 mg/day titrated up to 900 mg/day) was 486 nmol/L and 955 nmol/L and 914 nmol/L and 900 nmol/L and 809 nmol/L and 613 nmol/L. Also, the “Basal Serum Cortisol” value in experiment [1] (individual patients with confirmed pituitary CS, prior to mifepristone) is 337 nmol/L and 632 nmol/L and 734 nmol/L and 317 nmol/L and 494 nmol/L and 502 nmol/L. In experiment [1] (individual patients with confirmed pituitary CS, serum, day 14 of oral mifepristone 300 mg/day titrated up to 900 mg/day), the “Day 14 ACTH” value was 34 pg/ml (2×) and 53 pg/ml and 21 pg/ml and 30 pg/ml and 22 pg/ml. Besides, the “Week 6 Basal ACTH” value in experiment [1] (individual patients with confirmed pituitary CS, serum, week 6 of oral mifepristone 300 mg/day titrated up to 900 mg/day) is 57 pg/mL and 52 pg/mL and 65 pg/mL and 24 pg/mL and 49 pg/mL and 20 pg/mL. Moreover, the “Week 6 Serum Cortisol” value in experiment [1] (individual patients with confirmed pituitary CS, week 6 of oral mifepristone 300 mg/day titrated up to 900 mg/day) is 679 nmol/L and 999 nmol/L and 1151 nmol/L and 955 nmol/L and 731 nmol/L and 654 nmol/L.

Turning to `Cn1cc(S(=O)(=O)N2CCC3=Cc4c(cnn4-c4ccc(F)cc4)C[C@]3(C(=O)c3cc(C(F)(F)F)ccn3)C2)cn1` [relacorilant, (R)-(1-(4-fluorophenyl)-6-((1-methyl-1H-pyrazol-4-yl)sulfonyl)-4,4a,5,6,7,8-hexahydro-1H-pyrazolo[3,4-g]isoquinolin-4a-yl)(4-(trifluoromethyl)pyridin-2-yl)methanone], the “change in ACTH:cortisol ratio following treatment” value in experiment [2] (CS patient with pituitary tumor (ACTH-dependent Cushing's syndrome)) is listed as “increased”; in experiment [2] (two CS patients with adrenal tumors (ACTH-independent Cushing's syndrome)), “decreased”. Besides, the “Week 6 Serum Cortisol” value in experiment [2] (adrenal CS patients (ACTH-independent), after six weeks of oral relacorilant 100 mg/day titrated up to 400 mg/day) is 14.9 µg/dL and 17.1 µg/dL; in experiment [2] (pituitary CS patient (ACTH-dependent), after six weeks of oral relacorilant 100 mg/day titrated up to 400 mg/day), 28.7 µg/dL. Also, the “Baseline Serum Cortisol” value is 13.6 µg/dL and 16.2 µg/dL in experiment [2] (adrenal CS patients (ACTH-independent), prior to relacorilant); 20.7 µg/dL in experiment [2] (pituitary CS patient (ACTH-dependent), prior to relacorilant). Further, the “Week 6 ACTH” value in experiment [2] (pituitary CS patient (ACTH-dependent), serum, after six weeks of oral relacorilant 100 mg/day titrated up to 400 mg/day) came to 39.8 pg/mL. Further, in experiment [2] (pituitary CS patient (ACTH-dependent), serum, prior to relacorilant), the “Baseline ACTH” value is 23.9 pg/mL. Also, the “Post-Treatment Ratio (ACTH:cortisol)” value in experiment [2] (pituitary CS patient, ACTH in pg/ml divided by cortisol in μg/dL, after six weeks of oral relacorilant 100-400 mg/day) is recorded as 1.39. Moreover, the “Baseline Ratio (ACTH:cortisol)” value in experiment [2] (pituitary CS patient, ACTH in pg/ml divided by cortisol in μg/dL, prior to relacorilant) worked out at 1.15.

Source of the values: patent US12625150B2, “Treatment of, and differential diagnosis between, ACTH-dependent Cushing's syndrome and ACTH-independent Cushing's syndrome” (Corcept Therapeutics Incorporated, priority 2019, dated 2026).
